Experiments:
TALL-1 leukemia = test: Cell proliferation, TALL-1 leukemia; type: cell-based; conditions: Homo sapiens; TALL-1 leukemia cells
Procedure: (§1) In in vitro studies, all agents were dissolved in 100% DMSO and serially diluted in media/10% fetal bovine serum. For administration of Notch inhibitors to rodents, two different excipients were used: [1] 94% Labrafil/5% ETOH/1% TW80 or [2] ETOH/TPGS/PEG300 (10:10:80). Notch inhibitors were typically administered orally on a schedule of QD×15, 10 day-on-2 day-off, although other schedules had also been evaluated and shown to be efficacious.

G292 osteogenic sarcoma = test: Human tumor xenograft in mice: G292; type: in vivo; conditions: PO, QDx15, 10 day-on-2 day-off, 5-10 mg/kg/adm
Pat-26 pancreatic cancer = test: Human tumor xenograft in mice: Pat-26; type: in vivo; conditions: Pat-26 xenograft; PO, QDx15, 10 day-on-2 day-off, 5-10 mg/kg/adm
[1] = test system: TALL1 Human T-cell acute lymphoblastic leukemia; test: Human tumor xenograft in mice: TALL1; type: in vivo
[2] = test system: BT-474 HER2+ breast cancer; test: Human tumor xenograft in mice: BT-474; type: in vivo; conditions: BT-474 xenograft; PO, QDx15, 10 day-on-2 day-off, 5-10 mg/kg/adm
[3] = test system: MCF7i estrogen-independent breast cancer; test: Human tumor xenograft in mice: MCF7i; type: in vivo; conditions: PO, QDx15, 10 day-on-2 day-off, 5-10 mg/kg/adm
Pat-34 ovarian cancer = test: Human tumor xenograft in mice: Pat-34; type: in vivo; conditions: Pat-34 xenograft; PO, QDx15, 10 day-on-2 day-off, 5-10 mg/kg/adm
[4] = test system: MDA-MB468 TN breast cancer; test: Human tumor xenograft in mice: MDA-MB468; type: in vivo; conditions: PO, QDx15, 10 day-on-2 day-off, 5-10 mg/kg/adm
MDA-MB-468 breast cancer = test: Cell proliferation, MDA-MB-468 breast cancer; type: cell-based; conditions: Homo sapiens; MDA-MB-468 breast cancer cells
Procedure: as §1

[5] = test system: MDA-MB157 TN breast cancer; test: Human tumor xenograft in mice: MDA-MB157; type: in vivo; conditions: PO, QDx15, 10 day-on-2 day-off, 5-10 mg/kg/adm
[6] = test system: Pat-21/Abx R TN breast cancer (abx R); test: Human tumor xenograft in mice: Pat-21/Abx R; type: in vivo; conditions: Pat-21/Abx R xenograft; PO, QDx15, 10 day-on-2 day-off, 5-10 mg/kg/adm
[7] = High Throughput Metabolic Stability Panel, mouse liver microsomes
[8] = test system: U-87 glioblastoma multiforme (GBM); test: Human tumor xenograft in mice: U-87; type: in vivo; conditions: U-87 xenograft; PO, QDx15, 10 day-on-2 day-off, 5-10 mg/kg/adm
[9] = test system: MCF7 estrogen-dependent breast cancer; test: Human tumor xenograft in mice: MCF7; type: in vivo; conditions: PO, QDx15, 10 day-on-2 day-off, 5-10 mg/kg/adm
Pat-50 ovarian cancer = test: Human tumor xenograft in mice: Pat-50; type: in vivo; conditions: Pat-50 xenograft; PO, QDx15, 10 day-on-2 day-off, 5-10 mg/kg/adm
Pat-24 pancreatic cancer = test: Human tumor xenograft in mice: Pat-24; type: in vivo; conditions: Pat-24 xenograft; PO, QDx15, 10 day-on-2 day-off, 5-10 mg/kg/adm
[10] = test system: Calu-6 Non small cell lung cancer; test: Human tumor xenograft in mice: Calu-6; type: in vivo; conditions: Calu-6 xenograft; PO, QDx15, 10 day-on-2 day-off, 5-10 mg/kg/adm
SK-N-AS neuroblastoma = test: Human tumor xenograft in mice: SK-N-AS; type: in vivo; conditions: PO, QDx15, 10 day-on-2 day-off, 5-10 mg/kg/adm
HCT116 colon cancer = test: Human tumor xenograft in mice: HCT116; type: in vivo; conditions: PO, QDx15, 10 day-on-2 day-off, 5-10 mg/kg/adm
[11] = High Throughput Metabolic Stability Panel, dog microsomes; conditions: control compound values (expected ranges), 10 minutes
[12] = High Throughput Metabolic Stability Panel, monkey microsomes; conditions: control compound values (expected ranges), 10 minutes
[13] = High Throughput Metabolic Stability Panel, rat microsomes; conditions: control compound values (expected ranges), 10 minutes

Structure (SMILES): CN1C(=O)[C@@H](NC(=O)[C@H](CCC(F)(F)F)[C@H](CCC(F)(F)F)C(N)=O)N=C(c2ccccc2)c2ccccc21 [Compound A, (2R,3S)—N-((3S)-1-Methyl-2-oxo-5-phenyl-2,3-dihydro-1H-1,4-benzodiazepin-3-yl)-2,3-bis(3,3,3-trifluoropropyl)succinamide]
- IC50 (TALL-1 leukemia): 3.9 nM
- Antitumor Activity (% TGI) (G292 osteogenic sarcoma): 75 % TGI
- Antitumor Activity (% TGI) (Pat-26 pancreatic cancer): 93 % TGI
- in vivo efficacy against TALL1, activity as defined by the tumor growth inhibition (TGI) ([1]; FIG. 1, dosed intravenously QD×3, weekly×3, Compound A 3 mg/kg, Example 12 1.5, 3, 6 mg/kg, active = TGI≧50%): active
- Antitumor Activity (% TGI) ([1]; TALL1 xenograft, PO, QDx15, 10 day-on-2 day-off, 5-10 mg/kg/adm): 112 % TGI
- Antitumor Activity (% TGI) [2]: 96 % TGI
- Antitumor Activity (% TGI) [3]: 63 % TGI
- Antitumor Activity (% TGI) (Pat-34 ovarian cancer): 89 % TGI
- Antitumor Activity (% TGI) [4]: 91 % TGI
- IC50 (MDA-MB-468 breast cancer): 3.8 nM
- Antitumor Activity (% TGI) [5]: 81 % TGI
- Antitumor Activity (% TGI) [6]: 73 % TGI
- 0.5 μM MsLM (% Remaining) ([7]; 0.5 μM compound, mouse liver microsomes, ten-minute incubation, NADPH): 91%
- Antitumor Activity (% TGI) [8]: 82 % TGI
- Antitumor Activity (% TGI) [9]: 73 % TGI
- Antitumor Activity (% TGI) (Pat-50 ovarian cancer): 91 % TGI
- Antitumor Activity (% TGI) (Pat-24 pancreatic cancer): 111 % TGI
- Antitumor Activity (% TGI) [10]: 81 % TGI
- Antitumor Activity (% TGI) (SK-N-AS neuroblastoma): 67 % TGI
- 0.5 μM HLM (% Remaining) (0.5 μM compound, human liver microsomes, ten-minute incubation, NADPH): 97%
- Antitumor Activity (% TGI) (HCT116 colon cancer): 75 % TGI

Structure (SMILES): CCc1nn(CCCN2CCN(c3cccc(Cl)c3)CC2)c(=O)n1CCOc1ccccc1 [Nefazodone]
- Average Percent Remaining ± SD, Dog [11]: 0.4 ± 0.4%
- Average Percent Remaining ± SD, Monkey [12]: 0.6 ± 0.5%
- Average Percent Remaining ± SD, Rat [13]: 0.7 ± 0.6%
- Average Percent Remaining ± SD, Mouse ([7]; control compound values (expected ranges), mouse microsomes, 10 minutes): 0.4 ± 0.3%
- Average Percent Remaining ± SD, Human (control compound values (expected ranges), human microsomes, 10 minutes): 0.4 ± 0.4%
